Laboratory results: patent US20190169134A1, “NOVEL CLASS OF QUINOLONE HETEROCYCLIC AROMATIC MOLECULES FOR CANCER TREATMENT” (RenoTarget Therapeutics, Inc., priority 2016, published 2019)
“And” between values parts separate entries of the source, which are not always exact repeats. Equal values may be shown once.

Assays:
EGFR (G719S) = target: T1, EGFR (G719S) (Homo sapiens, UniProt P00533, G719S); assay: KinaseSeeker competition binding assay
T1 construct: made in house; host or cells: cell-free system (rabbit reticulocyte lysate)
Description: (§1) Compound Reno647 was profiled against the following panel of kinases at 2 μM using the KinaseSeeker™ assay: ABL1, AKT1, AKT2, AKT3, ALK, AURKA, AXL, BRAF, BTK, CDK2, CDK5, CDK7, CDK8, CSF1R, DDR1, EGFR del L747-P753 InsS, EGFR (L861Q), EGFR (G719S), EGFR, EGFR (L858R), EPHA2, EPHB2, FGFR3, FLT1/VEGFR1, FLT2/FGFR1, FLT3, FLT4/VEGFR3, GSK-3a, HER2, IGF1R, INSR, KIT, LIMK1, MET, MLK2/MAP3K10, RPS6KA5/MSK1, MUSK, p38a/MAPK12, PDGFRA, PDGFRB, PDK1, RET, RIPK2, RPS6KA1/RSK1, SRC, TEC, TESK1, TRKB, VEGFR2, and YES 1.
(§2) KinaseSeeker is a homogeneous competition binding assay where the displacement of an active site dependent probe by an inhibitor is measured by a change in luminescence signal (see FIG. 7). Luminescence readout translates into a highly sensitive and robust assay with low background and minimal interference from test compounds.
(§3) (Jester, Cox et al. 2010; Jester, Gaj et al. 2012): 10 mM stock of compound Reno647 was diluted in DMSO to a concentration of 50 μM. Prior to initiating a profiling campaign, the compound was evaluated for false positive against split-luciferase. The compound was then screened in duplicate against each of the kinases. For kinase assays, each Cfluc-Kinase was translated along with Fos-Nfluc using a cell-free system (rabbit reticulocyte lysate) at 30° C. for 90 min. A 24 μL aliquot of this lysate containing either 1 μL of DMSO (for no-inhibitor control) or compound solution in DMSO (2 LM final concentration) was incubated for 30 minutes at room temperature followed by 1 hour in the presence of a kinase specific probe. A 80 μL of luciferin assay reagent was added to each solution and luminescence was immediately measured on a luminometer.
(§4) The % Inhibition and % Activity Remaining were calculated using the following equations:
(§5) % inhibition=(ALUcontrol−ALUsample)×100
(§6) % activity=100−% inhibition.
(§7) The same assay design was used as described in example section 3.1.
(§8) 10 mM stock solutions of compound Reno647 was serially diluted in DMSO to make assay stocks. Prior to initiating IC50 determination, the test compound was evaluated for false positive against split-luciferase.
(§9) Reno647 was screened against 6 kinases (EGFR, EGFR del L747 P753 InsS, EGFR G719S, EGFR L858R, EGFR L861Q, RIPK2) at a minimum of 8 different concentrations in duplicate. For kinase assays, a 24 μL aliquot of lysate containing Cfluc-kinase and Fos-Nfluc was incubated for 30 minutes at room temperature with either 1 μL of DMSO (for no-inhibitor control) or compound solution in DMSO, followed by 1 hour incubation in the presence of a kinase specific probe. A 80 μL of luciferin assay reagent was added to each solution and luminescence was immediately measured on a luminometer.
(§10) % inhibition=(ALUcontrol−ALUsample)/ALcontrol×100
(§11) The % Activity was plotted against compound concentration and the IC50 was determined for each compound using an 8-point curve.

EGFR (L858R) = target: T2, EGFR (L858R) (Homo sapiens, UniProt P00533, L858R); assay: KinaseSeeker competition binding assay
T2 construct: made in house; host or cells: cell-free system (rabbit reticulocyte lysate)
Description: as §1, §2, §3, §4, §5, §6, §7, §8, §9, §10, §11

EGFR = target: T3, EGFR (Homo sapiens, UniProt P00533); assay: KinaseSeeker competition binding assay
T3 construct: made in house; host or cells: cell-free system (rabbit reticulocyte lysate)
Description: as §1, §2, §3, §4, §5, §6, §7, §8, §9, §10, §11

EGFR del L747-P753 Ins S = target: T4, EGFR del L747-P753 Ins S (Homo sapiens, UniProt P00533, DEL747-752/P753S); assay: KinaseSeeker competition binding assay
T4 construct: made in house; host or cells: cell-free system (rabbit reticulocyte lysate)
Description: as §1, §2, §3, §4, §5, §6, §7, §8, §9, §10, §11

ACHN = assay: Cell growth inhibition by SRB method; format: cell-based, human; settings: Homo sapiens, ACHN, 72 hrs exposure
Description: (§12) Six human cancer cell lines have been used to evaluate effects of the compounds on proliferation of cancer cells. These cell lines include HCC827-P (or HCC827 parent cells), human non-small lung cancer cells, Parent NSCLC HCC827 cell line (which harbors EGFR gene amplification, Exon 19 (E19) deletion, and Exon 21 mutation (Wang, Ramakrishnan et al. 2010), and is an EGFRi sensitive cell line (Kim, Kim et al. 2010)); HCC827-TR16 (Tarceva-resistant HCC727 cell line), HCC827-OR16 (AZD9291-resistant HCC727 cell line), LNCaP (human prostate cancer cells—a hormonal-therapy sensitive cell line (Wang, Liu et al. 1997)); 22RV1 (human prostate cancer cells—a hormonal-therapy resistant cell line (Sramkoski, Pretlow et al. 1999)); and ACHN (human renal adenocarcinoma cells (Park, Jung et al. 2003)). LNCaP cells and 22RV1 cells were purchased from the American Type Culture Collection (Rockville, Md.) and others were gifts of friends.
(§13) All cell lines were maintained in RPMI-1640 (GIBCO, Gaithersburg, Md.) with 10% heat-inactivated bovine serum (FBS) (Wang, Ossowski et al. 2004).
(§14) Sulforhodamine B (SRB) was used to estimate cell growth as described previously (Skehan, Storeng et al. 1990). Briefly, cells grown exponentially were aliquoted into 96-well plates at a density of 2,500 to 5,000 cells/200 μl per well in RPMI 1640 medium containing 10% FBS. After twenty-four hours, the cells were exposed to indicated concentrations of tested compounds for 72 hrs or otherwise as indicated. The cells were then fixed with 10% trichloride acetic acid for 2 h at 4° C. The 10% trichloride acetic acid was removed, and the dishes were washed 5 times with tape water, and air-dried. The fixed and dried cells were then stained with 0.4% SRB in 1% acetic acid for 25 min, and the dishes were washed 5 times with 1% acetic acid and air-dried overnight. 200 μl of 10 mM of Tris buffer (pH 10.0) were added, and the dishes were rotated to completely dissolve the color. Absorbance at 570 nm, with a reference wavelength 690 nm, was measured on a 96-well microplate reader (SPECTRO Star^Nano, BMG Labtech). Mean, standard deviation (SD) and the percent of growth inhibition at each concentration point of the treatment were calculated. The percent of growth inhibition as defined as (1−T/C)×100 where T is the mean of the absorbance at 570 nm from the treatment, and C from control (drug vehicle only). IC50 was calculated using Sigma-plot software by regression of growth-concentration curve from each drug treatment.

LNCaP = assay: Cell growth inhibition by SRB method; format: cell-based, human; settings: Homo sapiens, LNCaP; 72 hrs exposure, SRB
Description: as §12, §13, §14

T4 sequence (P00533 with tags, fused parts or gaps DEL747-752/P753S): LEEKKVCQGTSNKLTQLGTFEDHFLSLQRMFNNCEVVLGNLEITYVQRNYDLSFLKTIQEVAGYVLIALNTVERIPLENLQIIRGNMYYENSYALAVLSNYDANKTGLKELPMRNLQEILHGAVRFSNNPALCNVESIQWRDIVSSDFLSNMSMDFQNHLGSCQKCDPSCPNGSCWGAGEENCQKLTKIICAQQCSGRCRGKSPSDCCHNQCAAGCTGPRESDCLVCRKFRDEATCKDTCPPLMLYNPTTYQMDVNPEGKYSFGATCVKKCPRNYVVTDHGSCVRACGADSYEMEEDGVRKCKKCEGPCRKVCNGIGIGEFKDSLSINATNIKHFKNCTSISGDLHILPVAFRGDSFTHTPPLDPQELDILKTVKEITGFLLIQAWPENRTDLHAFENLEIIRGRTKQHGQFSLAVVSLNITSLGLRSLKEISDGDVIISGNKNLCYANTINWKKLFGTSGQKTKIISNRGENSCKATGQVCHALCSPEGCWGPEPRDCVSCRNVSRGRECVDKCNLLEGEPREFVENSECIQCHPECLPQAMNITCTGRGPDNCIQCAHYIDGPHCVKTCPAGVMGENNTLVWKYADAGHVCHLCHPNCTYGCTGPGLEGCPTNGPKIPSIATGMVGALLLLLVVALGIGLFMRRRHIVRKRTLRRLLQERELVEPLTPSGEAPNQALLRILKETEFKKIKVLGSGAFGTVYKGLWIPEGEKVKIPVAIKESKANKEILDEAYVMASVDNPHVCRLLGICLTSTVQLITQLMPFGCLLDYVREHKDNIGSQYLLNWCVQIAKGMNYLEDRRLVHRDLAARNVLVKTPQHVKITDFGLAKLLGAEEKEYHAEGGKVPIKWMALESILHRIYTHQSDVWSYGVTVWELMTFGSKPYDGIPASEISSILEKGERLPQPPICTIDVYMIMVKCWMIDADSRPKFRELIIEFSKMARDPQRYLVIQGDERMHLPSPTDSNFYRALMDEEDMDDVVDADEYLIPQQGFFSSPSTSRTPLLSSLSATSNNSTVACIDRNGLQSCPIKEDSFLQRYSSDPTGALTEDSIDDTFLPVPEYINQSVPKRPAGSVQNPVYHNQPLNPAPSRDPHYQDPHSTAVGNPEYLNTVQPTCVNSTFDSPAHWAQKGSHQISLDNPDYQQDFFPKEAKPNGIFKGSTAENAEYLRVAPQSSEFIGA
T2 sequence (P00533 25-1210 L858R): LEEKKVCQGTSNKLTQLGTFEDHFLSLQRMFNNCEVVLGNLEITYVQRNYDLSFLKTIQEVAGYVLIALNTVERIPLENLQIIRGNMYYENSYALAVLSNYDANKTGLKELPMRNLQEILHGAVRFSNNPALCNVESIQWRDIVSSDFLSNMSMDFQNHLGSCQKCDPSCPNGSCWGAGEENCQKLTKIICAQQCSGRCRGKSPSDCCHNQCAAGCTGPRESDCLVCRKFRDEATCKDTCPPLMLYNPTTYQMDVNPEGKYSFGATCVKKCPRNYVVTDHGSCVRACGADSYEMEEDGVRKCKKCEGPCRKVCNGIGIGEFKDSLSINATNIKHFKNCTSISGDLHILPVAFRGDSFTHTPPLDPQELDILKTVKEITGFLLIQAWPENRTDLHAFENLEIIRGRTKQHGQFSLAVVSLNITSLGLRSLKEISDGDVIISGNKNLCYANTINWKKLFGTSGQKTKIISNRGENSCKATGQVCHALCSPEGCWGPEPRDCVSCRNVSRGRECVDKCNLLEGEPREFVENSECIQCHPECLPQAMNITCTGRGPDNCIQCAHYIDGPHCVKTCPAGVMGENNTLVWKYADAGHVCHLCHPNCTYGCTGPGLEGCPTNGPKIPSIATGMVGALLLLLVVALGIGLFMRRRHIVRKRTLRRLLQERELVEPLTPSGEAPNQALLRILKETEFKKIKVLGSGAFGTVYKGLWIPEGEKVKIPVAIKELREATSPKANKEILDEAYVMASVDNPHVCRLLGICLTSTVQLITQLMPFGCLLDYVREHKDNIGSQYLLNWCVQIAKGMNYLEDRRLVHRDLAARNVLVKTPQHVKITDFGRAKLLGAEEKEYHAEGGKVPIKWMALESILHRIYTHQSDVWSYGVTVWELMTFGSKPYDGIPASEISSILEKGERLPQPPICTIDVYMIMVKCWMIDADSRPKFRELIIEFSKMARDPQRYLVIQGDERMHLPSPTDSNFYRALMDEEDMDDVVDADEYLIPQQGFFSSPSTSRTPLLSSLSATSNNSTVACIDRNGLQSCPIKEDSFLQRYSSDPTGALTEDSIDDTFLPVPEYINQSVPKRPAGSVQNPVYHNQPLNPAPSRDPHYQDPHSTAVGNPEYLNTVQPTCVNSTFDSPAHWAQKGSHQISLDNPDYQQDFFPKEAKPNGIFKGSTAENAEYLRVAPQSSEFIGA
T3 sequence (P00533 25-1210): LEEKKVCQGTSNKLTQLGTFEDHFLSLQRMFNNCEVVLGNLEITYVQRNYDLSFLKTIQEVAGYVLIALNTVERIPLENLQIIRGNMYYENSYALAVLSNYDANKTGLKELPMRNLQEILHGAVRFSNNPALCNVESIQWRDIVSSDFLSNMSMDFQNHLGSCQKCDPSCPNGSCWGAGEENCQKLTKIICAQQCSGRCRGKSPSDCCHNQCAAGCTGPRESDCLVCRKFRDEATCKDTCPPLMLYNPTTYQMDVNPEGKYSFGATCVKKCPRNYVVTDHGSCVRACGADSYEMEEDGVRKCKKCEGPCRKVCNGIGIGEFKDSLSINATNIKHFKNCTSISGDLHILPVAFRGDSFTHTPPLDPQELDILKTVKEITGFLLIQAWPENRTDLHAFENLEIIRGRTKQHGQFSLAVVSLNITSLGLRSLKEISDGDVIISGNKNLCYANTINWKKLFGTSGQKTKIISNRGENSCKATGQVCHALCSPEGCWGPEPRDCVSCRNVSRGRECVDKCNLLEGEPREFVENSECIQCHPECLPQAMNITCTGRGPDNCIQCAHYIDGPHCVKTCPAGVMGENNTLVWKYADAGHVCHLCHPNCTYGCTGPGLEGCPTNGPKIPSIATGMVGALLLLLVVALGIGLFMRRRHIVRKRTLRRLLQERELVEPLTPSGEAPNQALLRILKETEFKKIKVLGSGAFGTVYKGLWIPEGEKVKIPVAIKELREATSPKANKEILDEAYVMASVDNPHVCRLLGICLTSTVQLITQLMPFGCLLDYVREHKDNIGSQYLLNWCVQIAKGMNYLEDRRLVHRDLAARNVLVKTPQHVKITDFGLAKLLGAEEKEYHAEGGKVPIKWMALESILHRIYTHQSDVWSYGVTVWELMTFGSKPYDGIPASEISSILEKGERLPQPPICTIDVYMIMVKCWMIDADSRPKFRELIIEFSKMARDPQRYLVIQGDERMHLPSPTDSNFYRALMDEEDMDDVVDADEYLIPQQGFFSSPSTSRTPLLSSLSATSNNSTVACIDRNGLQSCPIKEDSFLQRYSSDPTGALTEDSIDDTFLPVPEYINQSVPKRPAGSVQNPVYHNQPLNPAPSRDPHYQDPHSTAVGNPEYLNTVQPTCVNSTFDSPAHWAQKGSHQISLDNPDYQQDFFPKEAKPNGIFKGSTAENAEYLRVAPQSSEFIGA
T1 sequence (P00533 25-1210 G719S): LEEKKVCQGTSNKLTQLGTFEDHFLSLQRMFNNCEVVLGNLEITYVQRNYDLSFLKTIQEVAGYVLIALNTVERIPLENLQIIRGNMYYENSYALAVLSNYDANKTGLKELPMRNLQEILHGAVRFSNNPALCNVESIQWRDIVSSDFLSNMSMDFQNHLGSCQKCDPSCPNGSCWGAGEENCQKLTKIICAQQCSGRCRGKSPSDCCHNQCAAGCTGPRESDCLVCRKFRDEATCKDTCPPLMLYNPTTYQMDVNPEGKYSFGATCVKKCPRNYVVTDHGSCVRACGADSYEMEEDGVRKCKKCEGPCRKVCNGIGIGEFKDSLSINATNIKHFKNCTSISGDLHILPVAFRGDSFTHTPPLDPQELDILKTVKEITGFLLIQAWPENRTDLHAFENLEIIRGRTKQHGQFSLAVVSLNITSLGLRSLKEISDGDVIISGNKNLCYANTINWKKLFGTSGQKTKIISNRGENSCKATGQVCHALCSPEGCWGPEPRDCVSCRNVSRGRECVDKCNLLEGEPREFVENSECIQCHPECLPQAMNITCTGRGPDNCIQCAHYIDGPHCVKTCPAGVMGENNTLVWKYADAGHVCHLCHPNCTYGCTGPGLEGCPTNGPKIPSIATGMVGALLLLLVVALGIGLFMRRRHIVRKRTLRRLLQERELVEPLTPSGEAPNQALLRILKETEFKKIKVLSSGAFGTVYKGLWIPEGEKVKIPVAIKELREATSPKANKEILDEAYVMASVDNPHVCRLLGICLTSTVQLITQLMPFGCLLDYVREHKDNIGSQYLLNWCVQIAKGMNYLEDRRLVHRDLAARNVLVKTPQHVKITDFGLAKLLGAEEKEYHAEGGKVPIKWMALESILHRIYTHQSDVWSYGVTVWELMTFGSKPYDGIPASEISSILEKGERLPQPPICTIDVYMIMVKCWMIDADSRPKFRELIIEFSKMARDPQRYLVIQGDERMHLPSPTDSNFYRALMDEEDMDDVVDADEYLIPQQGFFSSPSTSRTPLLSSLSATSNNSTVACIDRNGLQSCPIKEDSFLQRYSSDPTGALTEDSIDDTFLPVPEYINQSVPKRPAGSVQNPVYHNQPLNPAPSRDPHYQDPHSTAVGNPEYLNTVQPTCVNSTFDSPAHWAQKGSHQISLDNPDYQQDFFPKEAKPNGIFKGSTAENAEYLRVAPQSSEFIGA

remaining binding at 2 µM (EGFR (G719S); 2 μM, EGFR (G719S)): 30.2% | IC50 (EGFR (G719S); 8-point curve, duplicate): 971 nM | remaining binding at 2 µM (EGFR (L858R); 2 μM, EGFR (L858R)): 7.2% | IC50 (EGFR (L858R); 8-point curve, duplicate): 159 nM | remaining binding at 2 µM (EGFR; 2 μM, wild-type EGFR): 66.7% | IC50 (EGFR; 8-point curve, duplicate, read-out: IC50 wild-type of EGFR): 25000 nM | remaining binding at 2 µM (EGFR del L747-P753 Ins S; 2 μM, EGFR del L747-P753 Ins S): 14.8% | IC50 (EGFR del L747-P753 Ins S; 8-point curve, duplicate, read-out: IC50 EGFR del L747-P753 InsS): 77.7 nM and 77 nM | IC50 (ACHN): 1250 nM | IC50 (LNCaP): 1250 nM
Compound: C#Cc1cccc(Nc2ncnc3cc(OCCOC)c(NC(=O)c4ccc(F)c([N+](=O)[O-])c4)cc23)c1 [Reno647, 4-Fluoro-N-[4-(3-ethynyl-phenylamino)-7-(2-methoxy-ethoxy)-quinazolin-6-yl]-3-nitro-benzamide]
